Key:
[1] = tested on: Stapphylococcus aureus (gram positive bacterium number 25923); test: Inactivation of S. aureus by 300 ns electric pulses combined with antibiotic (CFU plating); type: cell-based, Staphylococcus aureus
Description: Equipment. Used was a capacitor based Blumlein pulse generator with a spark gap switch to produce trapezoidal EPs of 300 ns duration at the peak with rise and fall times close to 50 ns. Multiple pulses were delivered at a frequency of 1 Hz.
The samples were treated in a standard electroporation cuvette (Dot Scientific) whose resistance must match the pulse generator's impedance to prevent pulse reflection. Utilizing Luria broth, containing 0.5% NaCl, in a cuvette with gap distances of 1 mm and 2 mm yielded the best electrical match (no reflections in the measured signal). Used were 2 mm cuvettes to ensure consistency between tests, and the applied voltage was measured across the cuvette using a LeCroy PPE 20 kV high voltage probe with a 1000:1 attenuation feeding into a TeleDyne LeCroy Waverunner 6 Zi Oscilloscope capable of measuring signals up to 4 GHz. Assuming a purely parallel plate geometry with minimal fringing gives an electric field E=V/d, where V is the peak voltage of the applied pulse and d is the gap distance.
Sample Preparation. These experiments assessed Stapphylococcus aureus (gram positive bacterium number 25923) from ATCC and Esherichia coli (gram negative bacterium number 25922) inoculated in luria broth (LB Broth Lennox, powder microbial growth medium. SIGMA-ALDRICH) by taking 8 mL of broth in a 50 mL sterile conical tube and incubating in a shaker for 20 h at 37° C. The sample was then diluted with fresh Luria broth until attaining an optical density of 0.25 for 100 μL on a photospectrometer (Molecular Devices) for a wavelength of 562 nm as measured in a 96-well plate. The optical density, which varies with growth or tube volume, was determined experimentally and set between 1×10^8 and 1.5×10^8 colony forming units (CFUs)/mL for the samples to be pulsed. These samples were then plated at dilutions between 10-6 and 100 (no dilution) depending on the effectiveness of the pulse treatments.
Electric Pulse Treatment Protocol. […] Although no consensus exists on a universal scaling law for applied EP “dose,” we fixed the energy density
[formula] • where N is the number of pulses and τ is the pulse duration. Fixing U for E=40, 30, and 20 kV/cm gave N=250, 445, and 1000 pulses, respectively. Cultures were plated as described below.
Cuvettes were filled with 365 μL of sample (sufficient to just cover the electrodes) and then 250 μL of molecular biology grade mineral oil was placed on top. Keeping the samples on ice upon achieving the required dilution further reduced experimental variability by slowing biological processes, such as fission This facilitated the assessment of the inactivation efficiency of EPs, drugs, and combined treatments.
Tests used the clinically relevant, bactericidal drug tobramycin, which targets the 30S and 50S ribosome complex and has a clinical dose from 4 to 5 μg/mL and rifampicin, which inhibits bacterial […]. Added were 0.2, 2, and 20 μg/mL of each drug to the initial bacterial dilutions prior to pulsing. Samples were immediately placed on ice to minimize cell division and reduce variability. These aliquots were also used to plate individual unpulsed controls for each drug concentration.
Plating. Plating was done on standard disposable tissue culture Petri dishes from VWR (15 cm diameter, 10 mm height) and covered with 10 mL of agar in luria broth (Agar, microbiology tested powder, SIGMA-ALDRICH), which was prepared by adding 20 g of LB lennox (SIGMA-ALDRICH) and 15 g/L of agar to water and then autoclaved.
Plated were samples at dilutions of 10^−6 and 10^−3 for low and high electric field treatments, respectively, and at 10^−6 and 10^−5 for controls All samples containing 100 μL of pulsed or diluted cultures were plated on LB agar plates and counted after overnight incubation at 37° C. […]

[2] = tested on: carbapenem-resistant Escherichia coli (ATCC BA-2452, NDM-1 positive); test: Inactivation of carbapenem-resistant E. coli by 300 ns electric pulses and/or antibiotics (CFU plating); type: cell-based; details: 30 kV/cm NSEPs + 20 μg/mL
Text: (§1) Except for rifampicin, the five other antibiotics in these examples primarily target gram-positive bacteria and are largely ineffective or not used against gram-negative bacteria in a clinical setting.
(§2) A Blumlein pulsed generator consisting of two lines comprised of twelve 2000 pF capacitors connected by inductors produced 300 ns EPs with rise-times of 30 ns and fall-times of 35 ns at a repetition frequency of 1 Hz (12). The EPs were applied to a standard 2 mm gap electroporation cuvette (Dot Scientific R) filled with a solution containing the microorganisms. Used was a Luria broth of 0.5% salinity (5 grams of NaCl/Liter) for the solution to electrically match the resistance of the sample with the impedance of the pulse generator (11Ω) to prevent signal reflection. The voltage measurements were taken using a LeCroy PPE 20 kV high voltage probe with a 1000:1 attenuation recorded by a TeleDyne LeCroy® Waverunner 6 Zi Oscilloscope with a bandwidth of 4 GHZ.
(§3) The gram-negative strains included a carbapenem-resistant Escherichia coli (ATCC® BA-2452TM, New Delhi metallo-beta-lactamase NDM-1 positive.), Klebsiella pneumoniae (ATCC® BAA-2146TM NDM-I positive), and a gentamicin, streptomycin and sulfonamide resistant Pseudomonas aeruginosa (BEI Resources NR-31040). Assessed was the gram-positive strain of methicillin resistant Staphylococcus aureus (USA300-0114 strain), which is also resistant to erythromycin and tetracycline. Samples were cultured in Luria broth (LB Broth Lennox, powder microbial growth medium, SIGMA-ALDRICH®) by taking 25 mL of broth in a 50 mL sterile conical tube and incubating in a shaker for 16 h at 37° C. Samples were diluted 50% by adding 25 mL media to the incubated sample as we plated controls for each experiment and condition.
(§4) Samples were treated in 2 mm gap cuvettes containing 365 μL of sample between the electrodes, with bio-grade mineral oil added on top of the electrode plates to prevent arcing.
(§5) To establish a common baseline for comparing different NSEP parameters, we fixed the energy density U delivered to the cuvettes according to Formula (1) (above). For 300 ns EPs, 500 EPs at 20 kV/cm and 222 EPs at 30 kV/cm delivered the same energy to the sample.
(§6) Tissue culture Petri dishes from VWR R (15 cm diameter, 10 mm height) were utilized for plating. Each plate was covered with 15 mL of Luria broth (Agar, microbiology tested powder, SIGMA-ALDRICH®), which was prepared by adding 20 g of LB Lennox (SIGMA-ALDRICH) and 15 g/L of agar to water prior to being autoclaved. The salinity of the agar was the same as the LB (0.5% NaCl) to minimize additional environmental stressors on the bacteria.
(§7) Removed was 20 μL from each cuvette and added to 180 μL of PBS in a 96-well dish in triplicate. Each well was then diluted by a ratio of 10:1 five additional times by taking 20 μL of the diluted sample into subsequent wells using multi-channel pipettes (using fresh tips for each dilution). Plated were the six dilutions of each sample two times each by adding 4 μL from each well onto the Petri dish using a multi-channel pipette, which allowed the plating of all three replicates on the same plate to achieve n=6. These plates were then cultured overnight in an incubator at 37° C., and counted the next day.

[3] = tested on: gentamicin, streptomycin and sulfonamide resistant Pseudomonas aeruginosa (BEI Resources NR-31040); test: Inactivation of P. aeruginosa by 300 ns electric pulses and/or antibiotics (CFU plating); type: cell-based; details: 20 kV/cm EPs + 20 μg/mL
Text: as §1, §2, §3, §4, §5, §6, §7

CO[C@H]1/C=C/O[C@@]2(C)Oc3c(C)c(O)c4c(O)c(c(/C=N/N5CCN(C)CC5)c(O)c4c3C2=O)NC(=O)/C(C)=C\C=C\[C@H](C)[C@H](O)[C@@H](C)[C@@H](O)[C@@H](C)[C@H](OC(C)=O)[C@@H]1C [rifampicin]
log-reduction of S. aureus ([1]; 20 kV/cm EPs + 0.2 μg/mL): 1 log | log-reduction of S. aureus ([1]; 20 kV/cm EPs + 2 μg/mL): 1 log | log-reduction of S. aureus ([1]; 20 kV/cm EPs + 20 μg/mL): 1 log | log reduction of E. coli [2]: 6 log | synergy (FIG. 11B legend) [3]: approximately 2 log
